Like-named read-outs stand apart in the source and are kept apart here.
How the values were obtained:
[1] = target: BDZ binding site of the GABAA receptor; experiment: competitive binding assay with [3H]-flunitrazepam; details: [3H]-flunitrazepam competition
ICR mice [2] = experiment: Locomotor activity test; type: in vivo; details: 1 hour before 5 minute test
Protocol: ICR mice of either sex, weighing 14-17 g were used. Animals were housed in groups of four or five and were given food and water ad libitum and maintained on a 11 hour light: 13 hour dark cycle. All of the experimental groups had 12 animals per group. dl-THP was dissolved in double distilled water and administered orally 1 hour before testing at concentrations as detailed below, with a total injection volume of 10 ml/kg. For the control group, double-distilled water was used as the vehicle. All procedures were carried out in a quiet, air-conditioned laboratory between 08:00 and 13:00 at ambient temperature of 20-22° C. At the end of each session any boluses were removed and the box was thoroughly wiped with 70% ethanol. The ZIL-2 apparatus (Beijing Institute of Materia Medica) having dimensions of 60×60×12 cm was used to perform this test. It consists of four circular plastic boxes of 25 cm diameter, each having 6 equally distributed infrared photocells. The locomotor activity was counted automatically during a 5 minute test period. A decrease in the number of transitions reflects a decrease in locomotor activity. The results from the locomotor activity test and the elevated plus-maze test are expressed as mean±standard error of mean (SEM). All data were submitted to analysis of variance (ANOVA). Post hoc comparisons between individual treatments and controls of the locomotor activity test, the hole-board test and the elevated plus-maze test were made using Dunnett's t-test. The level of significance was considered to be p<0.05.

ICR mice [3] = experiment: Elevated plus-maze test; type: in vivo
Protocol: ICR mice of either sex, weighing 14-17 g were used. Animals were housed in groups of four or five and were given food and water ad libitum and maintained on a 11 hour light: 13 hour dark cycle. All of the experimental groups had 12 animals per group. dl-THP was dissolved in double distilled water and administered orally 1 hour before testing at concentrations as detailed below, with a total injection volume of 10 ml/kg. For the control group, double-distilled water was used as the vehicle. All procedures were carried out in a quiet, air-conditioned laboratory between 08:00 and 13:00 at ambient temperature of 20-22° C. At the end of each session any boluses were removed and the box was thoroughly wiped with 70% ethanol. The elevated plus-maze is made of wood as a horizontal cross consisting of two open arms (25×5 cm) and two opposite arms (25×5 cm) enclosed by 20 cm high walls. The arms extend from a central platform having dimensions of 5×5 cm. The plus-maze is elevated to a height of 40 cm from the floor. The maze is put inside a box with dimensions of 30×30×50 cm. After the hole-board test, the mice are immediately placed on the central platform of the maze facing a closed arm. The number of arm entries and the time spent into the open and closed arm are counted for 5 minutes (Pellow S et al., “Anxiolytic and anxiogenic drug effects on exploratory activity in an elevated plus-maze: a novel test of anxiety in the rat.”, Pharmacol Biochem Behav. March 1986;24(3):525-9; PMID: 2871560). Arm entry was defined as all four feet in the arm. The total number of arm entries provided a measure of general activity. […] The results from the locomotor activity test and the elevated plus-maze test are expressed as mean±standard error of mean (SEM). All data were submitted to analysis of variance (ANOVA). Post hoc comparisons between individual treatments and controls of the locomotor activity test, the hole-board test and the elevated plus-maze test were made using Dunnett's t-test. The level of significance was considered to be p<0.05.

ICR mice [4] = experiment: Hole-board test; type: in vivo; details: 5 minute test
Protocol: ICR mice of either sex, weighing 14-17 g were used. Animals were housed in groups of four or five and were given food and water ad libitum and maintained on a 11 hour light: 13 hour dark cycle. All of the experimental groups had 12 animals per group.
dl-THP was dissolved in double distilled water and administered orally 1 hour before testing at concentrations as detailed below, with a total injection volume of 10 ml/kg. For the control group, double-distilled water was used as the vehicle.
All procedures were carried out in a quiet, air-conditioned laboratory between 08:00 and 13:00 at ambient temperature of 20-22° C. At the end of each session any boluses were removed and the box was thoroughly wiped with 70% ethanol.
The hole-board apparatus is a walled wood arena of 60×60×30 cm, with four equidistant 3 cm diameter holes spaced on the floor. The mice are placed on the center of the arena and the number of head-dips on the hole, the time spent head-dipping, the number of rearings and the time spent rearing are counted during a 5 minute test period (File SE et al., “The effects of triazolobenzodiazepines in two animal tests of anxiety and in the holeboard.”, Br J Pharmacol. November 1985;86(3):729-35; PMID: 2866006). After each trial, the floor of the apparatus was wiped and dried thoroughly with tissue to remove traces of the previous path.
The results from the locomotor activity test and the elevated plus-maze test are expressed as mean±standard error of mean (SEM). All data were submitted to analysis of variance (ANOVA). Post hoc comparisons between individual treatments and controls of the locomotor activity test, the hole-board test and the elevated plus-maze test were made using Dunnett's t-test. The level of significance was considered to be p<0.05.

ICR mice [5] = experiment: Horizontal-wire test; type: in vivo; details: up to 30 mg/kg orally
Protocol: ICR mice of either sex, weighing 14-17 g were used. Animals were housed in groups of four or five and were given food and water ad libitum and maintained on a 11 hour light: 13 hour dark cycle. All of the experimental groups had 12 animals per group. dl-THP was dissolved in double distilled water and administered orally 1 hour before testing at concentrations as detailed below, with a total injection volume of 10 ml/kg. For the control group, double-distilled water was used as the vehicle. The mice are lifted by the tail and allowed to grasp a horizontally strung wire (1 mm diameter, 15 cm long and placed 20 cm above the table) with their forepaws and released (Bonetti E P et al., Psychophannacology (Berl). 1982;78(1):8-18; PMID: 6292984).

α-1 adrenoceptors = details: rat cerebral cortex; previously performed studies; cited from earlier work
α-2 adrenoceptors = details: rat cerebral cortex; previously performed studies; cited from earlier work
mice = details: cited from earlier work
rats = details: rat, in vivo, po; cited from earlier work
[6] = 1, 10 and 30 mg/kg orally, dose-dependent, 5 minute test

Structure (SMILES): COc1cc2c(cc1OC)C1Cc3ccc(OC)c(OC)c3CN1CC2 (racemic) [dl-THP, 5,8,18,13a-tetrahydro-2,3,9,10-tetramethoxy-6H-dibenzo [a,q] quinolizine]
- IC50 ([1]; read-out: IC50, inhibition of binding of [3H]-flunitrazepam to the BDZ binding site of the GABAA receptor): 836 µM
- Ki ([1]; read-out: Ki, inhibition of binding of [3H]-flunitrazepam to the BDZ binding site of the GABAA receptor): 518 µM
- reduction of locomotor activity (ICR mice [2]; 1 mg/kg orally): 33%
- reduction of locomotor activity (ICR mice [2]; 10 mg/kg orally): 33%
- reduction of locomotor activity (ICR mice [2]; 30 mg/kg orally): 36%
- open arm parameters versus controls (Dunnett's test) (ICR mice [3]; 1 mg/kg orally): significantly differed from controls
- total number of arm entries (ICR mice [3]; 1, 10 and 30 mg/kg orally, 5 minute test): did not significantly alter
- percentage of open arm entries (ICR mice [3]; [6]): significantly elevated
- percentage of time spent on the open arms (ICR mice [3]; [6]): significantly elevated
- number of head-dips (Dunnett's test) (ICR mice [4]; 10 mg/kg orally): significantly reduced
- number of head-dips (ICR mice [4]; 30 mg/kg orally): significantly reduced
- time spent head-dipping (ICR mice [4]; 30 mg/kg orally): significantly reduced
- muscle-relaxant effect, grasping of horizontal wire (ICR mice [5]): without effect
- Ki (α-1 adrenoceptors): 4.7 µM
- Ki (α-2 adrenoceptors): 4.97 µM
- LD50 (mice; mice, sub-cutaneous administration): 670 mg/kg
- LD50 (mice; mouse, in vivo, po): 1160 mg/kg
- LD50 (rats): 930 mg/kg
